The text below walks through data of patent publication US10259776B2, “Branched 3-phenylpropionic acid derivatives and their use” (BAYER INTELLECTUAL PROPERTY GMBH, priority 2011, dated 2019).

Sequence of sGC in the CHO reporter cell (P20595 whole entry): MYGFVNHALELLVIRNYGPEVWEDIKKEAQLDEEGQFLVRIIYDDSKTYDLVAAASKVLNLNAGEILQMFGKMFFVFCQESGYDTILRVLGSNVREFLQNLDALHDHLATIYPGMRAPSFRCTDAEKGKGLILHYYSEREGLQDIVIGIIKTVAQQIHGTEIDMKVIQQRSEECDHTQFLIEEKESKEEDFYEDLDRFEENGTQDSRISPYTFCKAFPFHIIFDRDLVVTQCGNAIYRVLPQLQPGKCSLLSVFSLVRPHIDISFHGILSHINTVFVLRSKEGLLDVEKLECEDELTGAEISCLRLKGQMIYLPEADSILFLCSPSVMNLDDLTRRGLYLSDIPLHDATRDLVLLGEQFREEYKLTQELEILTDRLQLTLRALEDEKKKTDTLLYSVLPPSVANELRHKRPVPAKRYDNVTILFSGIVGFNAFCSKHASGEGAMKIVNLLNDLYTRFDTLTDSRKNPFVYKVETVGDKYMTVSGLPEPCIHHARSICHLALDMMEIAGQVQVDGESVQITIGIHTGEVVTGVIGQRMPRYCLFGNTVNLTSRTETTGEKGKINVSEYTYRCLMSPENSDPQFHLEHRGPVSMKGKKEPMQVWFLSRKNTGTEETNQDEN
Sequence of sGC in the CHO reporter cell (P19686 whole entry partner): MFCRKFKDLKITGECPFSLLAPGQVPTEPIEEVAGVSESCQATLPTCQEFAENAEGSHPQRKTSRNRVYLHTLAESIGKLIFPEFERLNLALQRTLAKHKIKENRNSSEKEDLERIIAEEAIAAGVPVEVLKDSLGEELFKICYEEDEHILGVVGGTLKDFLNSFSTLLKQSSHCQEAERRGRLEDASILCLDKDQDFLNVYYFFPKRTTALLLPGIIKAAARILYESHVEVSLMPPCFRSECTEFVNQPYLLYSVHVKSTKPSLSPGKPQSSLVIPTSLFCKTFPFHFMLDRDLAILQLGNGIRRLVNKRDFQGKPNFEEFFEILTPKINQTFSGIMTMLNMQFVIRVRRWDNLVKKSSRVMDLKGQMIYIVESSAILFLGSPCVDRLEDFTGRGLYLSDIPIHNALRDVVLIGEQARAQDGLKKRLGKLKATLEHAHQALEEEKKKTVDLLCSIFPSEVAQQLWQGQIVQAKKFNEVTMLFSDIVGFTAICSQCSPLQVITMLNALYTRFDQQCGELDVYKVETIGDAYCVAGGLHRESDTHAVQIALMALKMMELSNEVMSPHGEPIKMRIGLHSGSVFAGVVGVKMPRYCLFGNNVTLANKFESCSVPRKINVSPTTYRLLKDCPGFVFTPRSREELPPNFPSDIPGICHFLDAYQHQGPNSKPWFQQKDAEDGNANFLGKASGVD

In this test the target is sGC in the CHO reporter cell (Rattus norvegicus (Rat), UniProt P20595). In words: Action at a recombinant guanylate cyclase reporter cell line. The test is classed as cell-based. Particulars: CHO reporter cell in vitro. As for the experimental part:
The cellular action of the compounds according to the invention is determined at a recombinant guanylate cyclase reporter cell line, as described in F. Wunder et al., Anal. Biochem. 339, 104-112 (2005).
Regarding `CC(C)C(C)(CC(=O)O)c1ccc(Cl)c(NC(=O)[C@H](c2ccc(Cl)cc2)[C@@H](C)C(F)(F)F)c1` (single isomer, unassigned) [Example 3], the “MEC (minimum effective concentration), sGC-activating activity in the CHO reporter cell” value (shortened to “MEC (minimum effective concentration)”) came to 0.3 nM.
As for `CC(C)C(C)(CC(=O)O)c1ccc(Cl)c(NC(=O)[C@H](c2ccc(Cl)cc2)[C@@H](C)C(F)(F)F)c1` (single isomer, unassigned) [Example 4], the figure is 3 nM; as for `C[C@H]([C@H](C(=O)Nc1cc(C(C)(CC(=O)O)C2CCC2)ccc1Cl)c1ccc(Cl)cc1)C(F)(F)F` (single isomer, unassigned) [Example 5], 0.3 nM.
Consider `C[C@H]([C@H](C(=O)Nc1cc(C(C)(CC(=O)O)C2CCC2)ccc1Cl)c1ccc(Cl)cc1)C(F)(F)F` (single isomer, unassigned) [Example 6], for which the “MEC (minimum effective concentration)” value was 1 nM.
As for `C[C@H]([C@H](C(=O)Nc1cc(C(CC(=O)O)C2(C)CC2)ccc1Cl)c1ccc(Cl)cc1)C(F)(F)F` (single isomer, unassigned) [Example 26], the figure is 10 nM; as for `C[C@H]([C@H](C(=O)Nc1cc(C(CC(=O)O)CC2CC2)ccc1Cl)c1ccc(Cl)cc1)C(F)(F)F` (single isomer, unassigned) [Example 35], 0.3 nM; as for `C[C@H]([C@H](C(=O)Nc1cc(C(CC(=O)O)CC2CC2)ccc1Cl)c1ccc(Cl)cc1)C(F)(F)F` (single isomer, unassigned) [Example 36], 3 nM.
With `CC(C)C(CC(=O)O)c1ccc(Cl)c(NC(=O)[C@H](c2ccc(Cl)cc2)[C@@H](C)C(F)(F)F)c1` (single isomer, unassigned; (+)) [Example 1], the “MEC (minimum effective concentration)” value came out at 3 nM.
`CC(C)C(CC(=O)O)c1ccc(Cl)c(NC(=O)[C@H](c2ccc(Cl)cc2)[C@@H](C)C(F)(F)F)c1` (single isomer, unassigned; (+)) [Example 2]: the “MEC (minimum effective concentration)” value was found to be 6.5 nM.
As for `C[C@H]([C@H](C(=O)Nc1cc(C(CC(=O)O)C2CCC2)ccc1Cl)c1ccc(Cl)cc1)C(F)(F)F` (single isomer, unassigned; (+)) [Example 33], the figure is 1 nM.
Then `C[C@H]([C@H](C(=O)Nc1cc(C(CC(=O)O)C2CCC2)ccc1Cl)c1ccc(Cl)cc1)C(F)(F)F` (single isomer, unassigned; (+)) [Example 34], with 10 nM; and `C[C@H]([C@H](C(=O)Nc1cc(C(C)(CC(=O)O)C2CC2)ccc1Cl)c1ccc(Cl)cc1)C(F)(F)F` (some centres unmarked) [Example 7], with 300 nM.
Then `CCc1ccc([C@@H](C(=O)Nc2cc(C(CC(=O)O)C(C)C)ccc2Cl)[C@@H](C)C(F)(F)F)cc1` (some centres unmarked) [Example 8], with 1 nM; and `CC(C)C(CC(=O)O)c1ccc(Cl)c(NC(=O)[C@H](c2ccc(Cl)c(F)c2)[C@@H](C)C(F)(F)F)c1` (some centres unmarked) [Example 9], with 1 nM.
Consider `CC(C)c1ccc([C@@H](C(=O)Nc2cc(C(CC(=O)O)C(C)C)ccc2Cl)[C@@H](C)C(F)(F)F)cc1` (some centres unmarked) [Example 10], for which the “MEC (minimum effective concentration)” value stood at 0.3 nM.
Consider `CC(C)C(CC(=O)O)c1ccc(Cl)c(NC(=O)[C@H](c2ccc(F)cc2)[C@@H](C)C(F)(F)F)c1` (some centres unmarked) [Example 11], for which the “MEC (minimum effective concentration)” value is reported as 3 nM.
As to `CC(C)C(CC(=O)O)c1ccc(Cl)c(NC(=O)C(c2ccc(CC(F)(F)F)cc2)C(C)C(F)(F)F)c1` (centres unmarked) [Example 12], the “MEC (minimum effective concentration)” value is given as 1 nM.
For the molecule `CC(C)C(CC(=O)O)c1ccc(Cl)c(NC(=O)[C@H](c2ccc(C3CC3(F)F)cc2)[C@@H](C)C(F)(F)F)c1` (some centres unmarked) [Example 13], the “MEC (minimum effective concentration)” value was 0.3 nM.
As to `CC(C)C(CC(=O)O)c1ccc(Cl)c(NC(=O)[C@H](c2ccc(C(C)(C)C)cc2)[C@@H](C)C(F)(F)F)c1` (some centres unmarked) [Example 14], the “MEC (minimum effective concentration)” value is 0.3 nM.
Regarding `COc1cc([C@@H](C(=O)Nc2cc(C(CC(=O)O)C(C)C)ccc2Cl)[C@@H](C)C(F)(F)F)ccc1Cl` (some centres unmarked) [Example 15], the “MEC (minimum effective concentration)” value is recorded as 3 nM.
As to `Cc1ccc([C@@H](C(=O)Nc2cc(C(CC(=O)O)C(C)C)ccc2Cl)[C@@H](C)C(F)(F)F)cc1` (some centres unmarked) [Example 16], the “MEC (minimum effective concentration)” value was 3 nM.
On to `Cc1cc([C@@H](C(=O)Nc2cc(C(CC(=O)O)C(C)C)ccc2Cl)[C@@H](C)C(F)(F)F)ccc1Cl` (some centres unmarked) [Example 17], for which the “MEC (minimum effective concentration)” value was determined as 1 nM.
As for `CC(C)C(CC(=O)O)c1ccc(Cl)c(NC(=O)C(c2ccc(Cl)cc2)C2CCC(F)(F)C2)c1` (centres unmarked) [Example 18], the figure is 300 nM; as for `CC(C)C(CC(=O)O)c1ccc(Cl)c(NC(=O)C(c2ccc(Cl)cc2)C2CCC(F)(F)C2)c1` (centres unmarked) [Example 19], 30 nM; as for `CC(C)C(CC(=O)O)c1ccc(Cl)c(NC(=O)C(c2ccc(Cl)cc2)C2CCC(F)(F)C2)c1` (centres unmarked) [Example 20], 1000 nM.
Regarding `CC(C)C(CC(=O)O)c1ccc(Cl)c(NC(=O)C(c2ccc(Cl)cc2)C2CCC(F)(F)C2)c1` (centres unmarked) [Example 21], the “MEC (minimum effective concentration)” value was 10 nM.
As for `C[C@H]([C@H](C(=O)Nc1cc(C(CC(=O)O)C2CC2)ccc1Cl)c1ccc(Cl)cc1)C(F)(F)F` (some centres unmarked) [Example 23], the figure is 3 nM; as for `COC(C)(C)C(CC(=O)O)c1ccc(Cl)c(NC(=O)[C@H](c2ccc(Cl)cc2)[C@@H](C)C(F)(F)F)c1` (some centres unmarked) [Example 25], 10 nM; as for `C[C@H]([C@H](C(=O)Nc1cc(C(CC(=O)O)C2(F)CC2)ccc1Cl)c1ccc(Cl)cc1)C(F)(F)F` (some centres unmarked) [Example 27], 3 nM.
As to `C[C@H]([C@H](C(=O)Nc1cc(C(CC(=O)O)C2CC(F)(F)C2)ccc1Cl)c1ccc(Cl)cc1)C(F)(F)F` (some centres unmarked) [Example 28], the “MEC (minimum effective concentration)” value is on record as 30 nM.
For the molecule `C[C@H](C(C(=O)Nc1cc(C(CC(=O)O)C2CC2(F)F)ccc1Cl)c1ccc(Cl)cc1)C(F)(F)F` (stereo partly drawn) [Example 31, 3-(4-Chloro-3-{[(3R)-2-(4-chlorophenyl)-4,4,4-trifluoro-3-methylbutanoyl]amino}phenyl)-3-(2,2-difluorocyclopropyl)propanoic acid], the “MEC (minimum effective concentration)” value is given as 3 nM.
In the case of `C[C@H](C(C(=O)Nc1cc(C(CC(=O)O)C2CC2(F)F)ccc1Cl)c1ccc(Cl)cc1)C(F)(F)F` (stereo partly drawn) [Example 32, 3-(4-Chloro-3-{[(3R)-2-(4-chlorophenyl)-4,4,4-trifluoro-3-methylbutanoyl]amino}phenyl)-3-(2,2-difluorocyclopropyl)propanoic acid], the “MEC (minimum effective concentration)” value worked out at 3 nM.
